Test results taken from ChEMBL document CHEMBL1926516, “Induction of cell cycle arrest by the carbazole alkaloid Clauszoline-I from Clausena vestita D. D. Tao via inhibition of the PKCδ phosphorylation” (Eur J Med Chem, 2012).
pIC50: −log10 of the molar value. The source made the active and inactive calls. The rule behind the calls is not given here.

Key:
HepG2 [1] = assay: cells; assay type: functional, cell-based; conditions: Homo sapiens, HepG2, 48 h
[2] = Cytotoxicity human L02 cells after 48 hrs by WST-8 based CCK8 assay; assay type: cell-based; conditions: L02, 48 h
[3] = target: Protein kinase C delta type (Homo sapiens) (UniProt Q05655); conditions: HepG2, 10 uM
Protein kinase C delta type (Homo sapiens), sequence (Q05655 whole entry, looked up): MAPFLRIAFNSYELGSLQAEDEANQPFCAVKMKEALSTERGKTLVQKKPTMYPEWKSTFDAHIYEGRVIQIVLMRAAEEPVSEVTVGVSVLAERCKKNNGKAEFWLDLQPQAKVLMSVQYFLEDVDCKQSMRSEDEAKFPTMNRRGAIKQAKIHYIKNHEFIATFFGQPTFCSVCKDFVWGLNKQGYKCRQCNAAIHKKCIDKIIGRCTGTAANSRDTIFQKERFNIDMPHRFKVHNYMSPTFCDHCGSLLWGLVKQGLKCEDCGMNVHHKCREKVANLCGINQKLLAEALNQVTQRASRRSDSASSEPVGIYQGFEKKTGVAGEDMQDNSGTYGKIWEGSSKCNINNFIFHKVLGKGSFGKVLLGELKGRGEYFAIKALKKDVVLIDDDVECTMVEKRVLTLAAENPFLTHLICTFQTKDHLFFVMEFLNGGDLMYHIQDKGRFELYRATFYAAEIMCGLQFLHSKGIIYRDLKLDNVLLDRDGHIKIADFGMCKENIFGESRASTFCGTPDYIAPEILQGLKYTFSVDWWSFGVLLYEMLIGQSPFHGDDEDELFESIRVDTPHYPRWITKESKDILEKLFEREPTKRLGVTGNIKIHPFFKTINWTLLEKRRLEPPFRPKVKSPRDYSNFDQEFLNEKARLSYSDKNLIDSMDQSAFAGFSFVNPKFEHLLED
Description: Inhibition of PKCdelta phosphorylation at Ser643 in human HepG2 cells at 10 uM after 1 hr by Western blot analysis

[4] = target: Transforming protein RhoA (Homo sapiens) (UniProt P61586); assay: Inhibition of RhoA activation in human HepG2 cells assessed as decrease of membrane-associated protein level at 10 uM after 24 hrs by Western blot analysis; assay type: cell-based
Transforming protein RhoA (Homo sapiens), sequence (P61586 whole entry): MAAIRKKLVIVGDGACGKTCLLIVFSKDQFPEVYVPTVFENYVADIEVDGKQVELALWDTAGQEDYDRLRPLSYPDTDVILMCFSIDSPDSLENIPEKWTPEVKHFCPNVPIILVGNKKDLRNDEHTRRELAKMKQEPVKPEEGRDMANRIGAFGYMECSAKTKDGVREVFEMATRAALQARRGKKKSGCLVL

HepG2 [5] = assay: Growth inhibition of human HepG2 cells at 16 uM after 24 to 72 hrs by WST-8 based CCK8 assay; assay type: functional, cell-based
[6] = target: PKC alpha and beta-2 (Homo sapiens) (UniProt P17252+P05771); assay: Inhibition of PKCalpha/beta2 phosphorylation at Thr 638/641 in human HepG2 cells by Western blot analysis; assay type: cell-based
PKC alpha and beta-2 (Homo sapiens), sequence (P05771 whole entry, looked up): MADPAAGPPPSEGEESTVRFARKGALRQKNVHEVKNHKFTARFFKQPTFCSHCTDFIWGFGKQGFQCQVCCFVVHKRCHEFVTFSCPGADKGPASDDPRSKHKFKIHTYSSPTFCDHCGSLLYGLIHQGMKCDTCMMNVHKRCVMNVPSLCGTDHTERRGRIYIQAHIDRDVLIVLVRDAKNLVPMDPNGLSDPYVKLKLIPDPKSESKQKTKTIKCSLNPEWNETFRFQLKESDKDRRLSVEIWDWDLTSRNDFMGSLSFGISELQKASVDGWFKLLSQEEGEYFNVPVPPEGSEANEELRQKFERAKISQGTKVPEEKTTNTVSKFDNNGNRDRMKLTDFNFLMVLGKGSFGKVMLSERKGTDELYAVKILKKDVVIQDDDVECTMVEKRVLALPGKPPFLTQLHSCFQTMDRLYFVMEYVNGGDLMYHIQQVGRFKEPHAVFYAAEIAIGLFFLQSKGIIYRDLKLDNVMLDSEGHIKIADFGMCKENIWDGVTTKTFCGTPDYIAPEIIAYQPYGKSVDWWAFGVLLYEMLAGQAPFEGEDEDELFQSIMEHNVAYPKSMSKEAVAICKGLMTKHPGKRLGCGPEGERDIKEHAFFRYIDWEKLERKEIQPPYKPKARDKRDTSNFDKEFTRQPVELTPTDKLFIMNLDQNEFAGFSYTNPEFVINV

[7] = Cell cycle arrest in human L02 cells assessed as effect on cytoplasmic Chk2 protein level at 16 uM after 24 hrs by Western blot analysis; assay type: ADME, cell-based; conditions: l02, 24 h
HepG2 [8] = assay: Cell cycle arrest in human HepG2 cells assessed as effect on Chk2 protein level in nucleus at 16 uM after 24 hrs by Western blot analysis; assay type: functional, cell-based
[9] = target: Protein kinase C delta type (Homo sapiens) (UniProt Q05655); assay: Inhibition of PKCdelta phosphorylation at Ser643 in human HepG2 cells by Western blot analysis; assay type: cell-based
HepG2 [10] = assay: Cell cycle arrest in human HepG2 cells assessed as decrease in Chk1 protein level in nucleus at 16 uM after 24 hrs by Western blot analysis; assay type: functional, cell-based
HepG2 [11] = assay: Cytotoxicity against human HepG2 cells assessed as increase in cells with filamentous protrusions at 16 uM after 24 hrs using […] staining by confocal microscopy; assay type: functional, cell-based
HepG2 [12] = assay: Induction of apoptosis in human HepG2 cells at 16 uM after 24 hrs using propidium iodide staining by flow cytometry; assay type: functional, cell-based
HepG2 [13] = assay: Cell cycle arrest in human HepG2 cells assessed as effect on cytoplasmic Chk2 protein level at 16 uM after 24 hrs by Western blot analysis; assay type: functional, cell-based
[14] = target: Transforming protein RhoA (Homo sapiens) (UniProt P61586); assay: Inhibition of RhoA activation in human HepG2 cells assessed as decrease of membrane-associated protein level at 16 uM after 24 hrs by Western blot analysis; assay type: cell-based
HepG2 [15] = assay: Cell cycle arrest in human HepG2 cells assessed as accumulation at G2/M phase at 16 uM after 24 hrs using propidium iodide staining by flow cytometry (reference value: 6.9 %); assay type: functional
[16] = Cell cycle arrest in human L02 cells assessed as effect on Chk1 protein level in nucleus at 16 uM after 24 hrs by Western blot analysis; assay type: ADME, cell-based; conditions: l02, 24 h
[17] = target: Protein kinase C delta type (Homo sapiens) (UniProt Q05655); assay: Inhibition of PKCdelta phosphorylation at Thr505 in human L02 cells by Western blot analysis; assay type: cell-based
[18] = target: Protein kinase C iota type/zeta type (Homo sapiens) (UniProt P41743+Q05513); assay: Inhibition of PKCzeta/lambda phosphorylation at Thr410/403 in human HepG2 cells by Western blot analysis; assay type: cell-based
Protein kinase C iota type/zeta type (Homo sapiens), sequence (P41743 whole entry, looked up): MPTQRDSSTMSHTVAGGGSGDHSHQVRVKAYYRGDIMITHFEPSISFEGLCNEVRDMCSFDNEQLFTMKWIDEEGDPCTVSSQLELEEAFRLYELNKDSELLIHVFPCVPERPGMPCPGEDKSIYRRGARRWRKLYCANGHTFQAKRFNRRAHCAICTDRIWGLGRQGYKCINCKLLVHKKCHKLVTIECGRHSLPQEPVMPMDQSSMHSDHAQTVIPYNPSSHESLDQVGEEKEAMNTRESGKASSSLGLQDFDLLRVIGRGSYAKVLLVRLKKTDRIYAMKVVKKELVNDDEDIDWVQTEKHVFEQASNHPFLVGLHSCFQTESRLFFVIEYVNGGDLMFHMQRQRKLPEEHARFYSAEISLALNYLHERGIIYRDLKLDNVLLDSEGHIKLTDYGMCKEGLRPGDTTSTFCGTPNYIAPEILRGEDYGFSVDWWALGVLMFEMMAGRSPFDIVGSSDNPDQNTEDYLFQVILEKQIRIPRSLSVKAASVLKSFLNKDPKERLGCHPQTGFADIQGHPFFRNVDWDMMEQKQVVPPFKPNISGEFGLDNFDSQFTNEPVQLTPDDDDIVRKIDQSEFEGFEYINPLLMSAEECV
Protein kinase C iota type/zeta type (Homo sapiens), sequence (Q05513 whole entry, looked up): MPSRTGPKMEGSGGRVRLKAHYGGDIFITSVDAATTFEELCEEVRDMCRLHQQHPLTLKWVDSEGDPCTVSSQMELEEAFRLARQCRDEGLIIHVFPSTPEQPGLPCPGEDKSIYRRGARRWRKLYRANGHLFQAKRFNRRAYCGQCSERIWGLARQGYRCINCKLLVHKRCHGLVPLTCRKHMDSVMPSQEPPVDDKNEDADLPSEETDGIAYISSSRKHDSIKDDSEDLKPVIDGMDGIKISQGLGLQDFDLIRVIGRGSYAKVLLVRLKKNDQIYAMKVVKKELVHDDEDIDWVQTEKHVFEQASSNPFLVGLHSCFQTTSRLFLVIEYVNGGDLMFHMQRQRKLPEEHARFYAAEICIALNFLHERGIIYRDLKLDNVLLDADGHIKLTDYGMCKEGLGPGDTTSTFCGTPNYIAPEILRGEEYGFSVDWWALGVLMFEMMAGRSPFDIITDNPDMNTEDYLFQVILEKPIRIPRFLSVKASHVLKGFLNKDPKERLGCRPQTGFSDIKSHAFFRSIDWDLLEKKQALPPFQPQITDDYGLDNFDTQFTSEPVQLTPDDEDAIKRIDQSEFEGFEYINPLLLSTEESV

HepG2 [19] = assay: Cell cycle arrest in human HepG2 cells assessed as increase in cytoplasmic Chk1 protein level at 16 uM after 24 hrs by Western blot analysis; assay type: functional, cell-based
MDA-MB-231 = assay: Growth inhibition human MDA-MB-231 cells after 48 hrs by WST-8 based CCK8 assay; assay type: functional, cell-based; conditions: MDA-MB-231, 48 h
[20] = Cell cycle arrest in human L02 cells assessed as effect on Chk2 protein level in nucleus at 16 uM after 24 hrs by Western blot analysis; assay type: ADME, cell-based; conditions: l02, 24 h
[21] = Cell cycle arrest in human L02 cells assessed as effect on cytoplasmic Chk1 protein level at 16 uM after 24 hrs by Western blot analysis; assay type: ADME, cell-based; conditions: l02, 24 h
HepG2 [22] = assay: Cell cycle arrest in human HepG2 cells assessed as accumulation at G0/G1 phase at 16 uM after 24 hrs using propidium iodide staining by flow cytometry (reference value: 71.5 %); assay type: functional
HepG2 [23] = assay: Cytotoxicity against human HepG2 cells assessed as decrease in F-actin staining at 16 uM after 24 hrs using […] staining by confocal microscopy; assay type: functional, cell-based
[24] = target: Protein kinase C delta type (Homo sapiens) (UniProt Q05655); assay: Inhibition of PKCdelta phosphorylation at Ser643 in human L02 cells by Western blot analysis; assay type: cell-based
HeLa = assay: Growth inhibition human HeLa cells after 48 hrs by WST-8 based CCK8 assay; assay type: functional, cell-based
HepG2 [25] = assay: Growth inhibition of human HepG2 cells at 4 uM after 24 to 72 hrs by WST-8 based CCK8 assay; assay type: functional, cell-based
HepG2 [26] = assay: Cell cycle arrest in human HepG2 cells assessed as accumulation at S phase at 16 uM after 24 hrs using propidium iodide staining by flow cytometry (reference value: 21.6 %); assay type: functional
[27] = Growth inhibition human CNE2 cells after 48 hrs by WST-8 based CCK8 assay; assay type: functional, cell-based; conditions: CNE-2, 48 h
T98G = assay: Growth inhibition human T98G cells after 48 hrs by WST-8 based CCK8 assay; assay type: cell-based
[28] = target: Transforming protein RhoA (Homo sapiens) (UniProt P61586); assay: Inhibition of RhoA activation in human L02 cells assessed as decrease of membrane-associated protein level at 16 uM after 24 hrs by Western blot analysis; assay type: cell-based

O=Cc1cc(O)c2[nH]c3ccc(O)cc3c2c1
pIC50 (HepG2 [1]): 3.87

Cc1cc2c(cc1O)[nH]c1ccccc12
pIC50 [2]: 4.07
pIC50 (HepG2 [1]): 4.84

COc1cc(=O)n(C)c2ccccc12
pIC50 (HepG2 [1]): < 3.80

COC(=O)c1ccc2[nH]c3ccccc3c2c1
pIC50 (HepG2 [1]): 4.43

COc1ccc2c(c1)[nH]c1cc(O)c(C=O)cc12
pIC50 (HepG2 [1]): 4.54

CC(=O)c1c(O)c(C)c(O)c(Cc2c(O)c3c(c(C(=O)/C=C/c4ccccc4)c2O)OC(C)(C)C=C3)c1O
inhibition [3]: Active
inhibition [4]: Active

COC(=O)c1cc(O)c2[nH]c3ccccc3c2c1 [CLAUSINE E]
pIC50 [2]: < 3.80
growth inhibition (GI) (HepG2 [5]): Active
inhibition [6]: inactive
Activity [7]: Non-toxic
Activity (HepG2 [8]): inactive
inhibition [9]: Dose-dependent effect
Activity (HepG2 [10]): Active
Activity (HepG2 [11]): Active
Activity (HepG2 [12]): inactive
Activity (HepG2 [13]): inactive
inhibition [14]: Active
Activity (HepG2 [15]): 13.1%
Activity [16]: Non-toxic
inhibition [17]: inactive
inhibition [18]: inactive
Activity (HepG2 [19]): Active
pIC50 (MDA-MB-231): 4.43
Activity [20]: Non-toxic
Activity [21]: Non-toxic
Activity (HepG2 [22]): 55.9%
Activity (HepG2 [23]): Active
inhibition [24]: inactive
pIC50 (HeLa): 4.88
growth inhibition (GI) (HepG2 [25]): Active
Activity (HepG2 [26]): 31.1%
pIC50 (HepG2 [1]): 4.80
pIC50 [27]: 4.77
pIC50 (T98G): 4.15
inhibition [28]: inactive

COc1ccc2c(c1)[nH]c1cc(OC)c(C(=O)O)cc12 [CLAUSINE K]
pIC50 (HepG2 [1]): 4.61

O=Cc1cc2c(cc1O)[nH]c1cc(O)ccc12 [CLAUSINE O]
pIC50 (HepG2 [1]): 4.48

COC(=O)c1cc2c(cc1OC)[nH]c1cc(OC)ccc12 [CLAUSZOLINE C]
pIC50 (HepG2 [1]): < 3.80

COc1ccc2c(c1)[nH]c1ccc(C=O)cc12 [CLAUSZOLINE K]
pIC50 [2]: 4.14
growth inhibition (GI) (HepG2 [5]): Active
growth inhibition (GI) (HepG2 [25]): Active
pIC50 (HepG2 [1]): 5.37

COc1c2ccccc2nc2occc12 [DICTAMNINE]
pIC50 (HepG2 [1]): 4.26

COc1c2ccoc2nc2c(OC)cccc12 [GAMMA-FAGARINE]
pIC50 (HepG2 [1]): < 3.80

Cc1cc2c([nH]c3ccccc32)c2c1OC(C)(C)C=C2 [GRINIMIBINE]
pIC50 (HepG2 [1]): < 3.80

COc1ccc2c(c1)[nH]c1cc(OC)c(C=O)cc12 [LANSINE]
pIC50 (HepG2 [1]): 3.99

O=Cc1cc2c(cc1O)[nH]c1ccccc12 [MUKONAL]
pIC50 (HepG2 [1]): 4.18

COC(=O)c1cc2c(cc1O)[nH]c1ccccc12 [MUKONIDINE]
pIC50 (HepG2 [1]): < 3.80
